A word on the AUC(0-inf): it is the area under the concentration-time curve extrapolated to infinity. Usually AUC(0-t) stands for exposure summed from dosing to a finite time, without extrapolation to infinity. The low end stands for low exposure, the high end for high exposure. For orientation: half-life means the time needed for the level to fall by half in the phase considered. What is called Cmax is the peak of the concentration-time curve. As usually defined, the Tmax is the time at which the peak concentration occurs.

This is an account of results in patent US20230406849A1, “KRAS INHIBITORS FOR TREATMENT OF CANCERS” (TYLIGAND BIOSCIENCE (SHANGHAI) LIMITED, priority 2020, published 2023).

Data set [1] deals with human pancreatic cancer Mia PaCa-2 cells xenograft. Put plainly: Subcutaneous xenograft tumor model of Mia PaCa-2 cells in BALB/c nude mouse. The data set is classed as in vivo. To be noted: Mia PaCa-2 xenograft, BALB/c nude mice, gavage once a day; for TGI(%): Day 21. How it is done:
The in vivo efficacy of the representative compounds of the present disclosure in the subcutaneous xenograft tumor model of human pancreatic cancer Mia PaCa-2 cells was evaluated.
[Test materials]: BALB/c nude mice of 6-8 weeks, female, Zhejiang Vital River Laboratory Animal Technology Co., Ltd. Human pancreatic cancer Mia PaCa-2 cells (ATCC, Cat #: CRL-1420). Matrigel (Matrigel, Corning, Cat. No. 356234).
[Experimental procedure]: 0.2 mL (5×10^6) Mia PaCa-2 cells (plus Matrigel, volume ratio 1:1) were inoculated subcutaneously on the right back dorsal of each mouse. […] During the assay, tumor volumes and body weights were measured twice a week.
The tumor volume was calculated according to the following formula: V=0.5a×b^2, where a and b represent the long and short diameters of the tumor, respectively.

The nature of data set [2]: Pharmacokinetics in rats, IV and oral. The data set is classed as in vivo, SD rats. As to conditions: rat. How it is done:
2.2 Pharmacokinetic Properties of Representative Examples of the Present Disclosure
[Test materials] Same as above 2.1.
[Experimental procedure]: IV injection administration was performed on rats according to the similar procedure described in 2.1 above, with a drug concentration of 3 mg/mL, and the drug preparation, administration and sample collection were performed by reference to 2.1 above. For the oral administration group, the drug was formulated to a 3 mg/mL suspension in 0.5% methylcellulose MC-400cp (Aladdin, M112866), and gavage administered in 10 mL/kg. Blood samples were collected at the time points of 0.25, 0.5, 1, 2, 4, 6, 8 and 24 hours after administration via external jugular vein puncture, centrifuged at low temperature for 20 minutes, and the plasma samples were collected and stored at −80° C. until analysis.
The subsequent sample analysis and data processing are similar to those described in 2.1.

In the case of `C=CC(=O)N1CCN(c2c(C#N)cnc3c(F)c(-c4ccc(F)c5sc(N)nc45)c(Cl)cc23)CC1` [Example 9, 4-(4-Acryloylpiperazin-1-yl)-7-(2-amino-7-fluorobenzo[d]thiazol-4-yl)-6-chloro-8-fluoroquinoline-3-carbonitrile], in data set [1] (3 mpk), the “Tumor volume (mm^3) (Day 21)” value is recorded as 665 mm^3 and the “TGI(%)” value came out at 50.4%. Besides, in data set [1] (10 mpk), the “Tumor volume (mm^3) (Day 21)” value was determined as 246 mm^3 and the “TGI(%)” value is on record as 89.8%. In addition, in data set [1] (30 mpk), the “Tumor volume (mm^3) (Day 21)” value came to 162 mm^3 and the “TGI(%)” value stood at 97.7%. In addition, in data set [2] (male, SD, plasma, IV, 3 mg/kg), the AUC(0-inf) amounted to 3310 ng·h/mL, the AUC(0-t) worked out at 3310 ng·h/mL, the Vd is 0.63 L/kg and the clearance came to 15.6 mL/min/kg. The molecule further had a half-life in data set [2] (male, SD, plasma, IV, 3 mg/kg) of 0.67 h. Further, in data set [2] (male, SD, plasma, PO, 30 mg/kg), the AUC(0-inf) came to 7870 ng·h/mL, the area under the curve AUC(0-t) stood at 7780 ng·h/mL, the highest level (Cmax) was 2390 ng/mL and the Tmax came to 1.33 h. In data set [2] (PO 30 mg/kg vs IV 3 mg/kg), this molecule came in with an F of 23.8%.

Take `C=CC(=O)N1CCN(c2nc(=O)n(-c3c(C)ccnc3C(C)C)c3nc(-c4c(O)cccc4F)c(F)cc23)[C@@H](C)C1` (atropisomer, axis not shown) [AMG510, reference compound]: in data set [1] (10 mpk), the “Tumor volume (mm^3) (Day 21)” value is 432 mm^3 and the “TGI(%)” value was determined as 72.3%.
